Series [1] is described as follows: Stability of the compound in simulated gastric fluid at pH 1.2 assessed as half life measured up to 24 hrs by RP-HPLC-UV analysis. Format: ADME.
The nature of series [2]: Stability of the compound in simulated intestinal fluid at pH 6.8 assessed as half life measured up to 24 hrs by RP-HPLC-UV analysis. Format: ADME.

Results on 15 molecules are retold here after ChEMBL document CHEMBL5137009, “On the Utility of Chemical Strategies to Improve Peptide Gut Stability” (J Med Chem, 2022).

Where a SMILES comes first, the peptide text is derived from it. Bridges are numbered along the chain shown (N, C = ends).

As usually defined, the half-life is the time in which the quantity being followed falls by half. With `CC(C)C[C@H](NC(=O)[C@@H]1CSSC[C@@H]2NC(=O)[C@H](CC(C)C)NC(=O)[C@H](CCC(=O)O)NC(=O)[C@@H](NC(=O)[C@H](CCC(=O)O)NC(=O)[C@H](CC(=O)O)NC(=O)[C@@H](N)CC(N)=O)CSSC[C@H](NC(=O)[C@H](C)NC(=O)[C@H](C(C)C)NC(=O)[C@H](CC(N)=O)NC(=O)[C@H](C(C)C)NC2=O)C(=O)N[C@@H]([C@@H](C)O)C(=O)NCC(=O)N1)C(=O)O` [PLECANATIDE], the half-life in series [1] was > 24 h. `CC[C@H](C)[C@@H]1NC(=O)[C@H](Cc2ccc(O)cc2)NC(=O)[C@@H](N)CSSC[C@@H](C(=O)N2CCC[C@H]2C(=O)N[C@@H](CC(C)C)C(=O)N(C)CC(N)=O)NC(=O)[C@H](CC(N)=O)NC(=O)[C@H](CCC(N)=O)NC1=O`: the half-life in series [2] was 2.9 h. Regarding `NC(=O)CC[C@@H]1NC(=O)[C@H](Cc2ccccc2)NC(=O)[C@H](Cc2ccc(O)cc2)NC(=O)[C@@H](N)CSSC[C@@H](C(=O)N2CCC[C@H]2C(=O)N[C@@H](CCCN=C(N)N)C(=O)NCC(N)=O)NC(=O)[C@H](CC(N)=O)NC1=O` [VASOPRESSIN], in series [1], the half-life was > 24 h. For `CC[C@H](C)[C@@H]1NC(=O)[C@H](Cc2ccc(O)cc2)NC(=O)[C@@H]2CSSC[C@H](NC(=O)[C@H](CC(N)=O)NC(=O)[C@H](CCC(N)=O)NC1=O)C(=O)N1CCC[C@H]1C(=O)N[C@@H](CC(C)C)C(=O)NCC(=O)N2`, in series [2], the half-life is 0.117 h. On to `CC[C@H](C)[C@@H]1NC(=O)[C@@H]2CSSC[C@H](NC(=O)[C@H](CCCNC(=N)N)NC(=O)[C@@H]3CSSC[C@H](NC1=O)C(=O)N[C@@H]([C@@H](C)O)C(=O)N[C@@H](CCCNC(=N)N)C(=O)NCC(=O)N[C@@H](Cc1ccccc1)C(=O)N3)C(=O)N[C@@H](CC(C)C)C(=O)N[C@H]1CSSC[C@H](NC(=O)[C@H](C(C)C)NC(=O)CNC(=O)[C@H](CCCNC(=N)N)NC(=O)[C@H](CCCNC(=N)N)NC1=O)C(=O)N[C@@H](CCCNC(=N)N)C(=O)N2` (HELM PEPTIDE1{G.F.C.R.C.L.C.R.R.G.V.C.R.C.I.C.T.R}$PEPTIDE1,PEPTIDE1,3:R3-16:R3|PEPTIDE1,PEPTIDE1,5:R3-14:R3|PEPTIDE1,PEPTIDE1,7:R3-12:R3|PEPTIDE1,PEPTIDE1,1:R1-18:R2$$$V2.0), for which the half-life in series [1] was 2.2 h. On to `C[C@@H](O)[C@@H]1NC(=O)[C@H](CCCCN)NC(=O)[C@@H](Cc2c[nH]c3ccccc23)NC(=O)[C@H](Cc2ccccc2)NC(=O)[C@@H](NC(=O)[C@H](N)Cc2ccccc2)CSSC[C@@H](C(=O)N[C@H](CO)[C@@H](C)O)NC1=O` [OCTREOTIDE], for which, in series [1], the half-life is > 24 h.

On to `CC[C@H](C)[C@@H]1NC(=O)[C@H](Cc2ccc(O)cc2)NC(=O)[C@@H](N)CSSC[C@@H](C(=O)N2CCC[C@H]2C(=O)N[C@@H](CC(C)C)C(=O)NCC(N)=O)NC(=O)[C@H](CC(N)=O)NC(=O)[C@H](CCC(N)=O)NC1=O` [OXYTOCIN], for which the half-life in series [1] was > 24 h. Turning to `CC[C@@H](C)[C@H]1NC(=O)[C@@H](Cc2ccc(O)cc2)NC(=O)[C@H](N)CSSC[C@H](C(=O)N2CCC[C@@H]2C(=O)N[C@H](CC(C)C)C(=O)NCC(N)=O)NC(=O)[C@@H](CC(N)=O)NC(=O)[C@@H](CCC(N)=O)NC1=O`, the half-life in series [2] is > 24 h.

As to `CC[C@H](C)[C@@H]1NC(=O)[C@H](Cc2ccc(O)cc2)NC(=O)[C@@H](N)CSSC[C@@H](C(=O)N2CCC[C@H]2C(=O)N[C@H](CC(=O)NCC(N)=O)CC(C)C)NC(=O)[C@H](CC(N)=O)NC(=O)[C@H](CCC(N)=O)NC1=O`, the half-life in series [2] was 3.6 h. Same read-out and setting: under `CC[C@H](C)[C@@H]1NC(=O)[C@H](Cc2ccc(O)cc2)NC(=O)[C@@H]2CSSC[C@@H]3NC(=O)[C@H](C(C)C)NC(=O)[C@@H]4CCCN4C(=O)[C@H](Cc4c[nH]c5ccccc45)NC(=O)[C@H](CO)NC(=O)[C@@H]4CSSC[C@H](NC(=O)[C@H]([C@@H](C)O)NC(=O)[C@H](CCC(=O)O)NC(=O)CNC(=O)[C@H](CSSC[C@H](NC(=O)[C@H](CC(N)=O)NC(=O)[C@H](CCC(N)=O)NC1=O)C(=O)N[C@@H]([C@@H](C)O)C(=O)N4)NC(=O)[C@H](C(C)C)NC(=O)[C@@H]1CCCN1C(=O)[C@H](CC(C)C)NC(=O)CNC(=O)[C@H](CC(N)=O)NC(=O)[C@H](CCCNC(=N)N)NC(=O)[C@H]([C@@H](C)O)NC3=O)C(=O)N[C@@H](C(C)C)C(=O)NCC(=O)NCC(=O)N[C@@H]([C@@H](C)O)C(=O)N2` stands > 24 h; under `CC[C@H](C)[C@@H]1NC(=O)[C@H](Cc2ccc(O)cc2)NC(=O)[C@@H]2CSSC[C@@H]3NC(=O)[C@H](C(C)C)NC(=O)[C@@H]4CCCN4C(=O)[C@H](Cc4c[nH]c5ccccc45)NC(=O)[C@H](CO)NC(=O)[C@@H]4CSSC[C@H](NC(=O)[C@H]([C@@H](C)O)NC(=O)[C@H](CCC(=O)O)NC(=O)CNC(=O)[C@H](CSSC[C@H](NC(=O)[C@H](CC(N)=O)NC(=O)[C@H]([C@@H](C)O)NC1=O)C(=O)N[C@@H]([C@@H](C)O)C(=O)N4)NC(=O)[C@H](C(C)C)NC(=O)[C@@H]1CCCN1C(=O)[C@H](CC(C)C)NC(=O)CNC(=O)[C@H](CC(N)=O)NC(=O)[C@H](CCCNC(=N)N)NC(=O)[C@H]([C@@H](C)O)NC3=O)C(=O)N[C@@H](C(C)C)C(=O)NCC(=O)NCC(=O)N[C@@H]([C@@H](C)O)C(=O)N2`, > 24 h.

On to `CC[C@H](C)[C@@H]1NC(=O)[C@H](Cc2ccc(O)cc2)NC(=O)[C@@H]2CSSC[C@@H]3NC(=O)[C@H]([C@@H](C)CC)NC(=O)[C@@H]4CCCN4C(=O)[C@H](Cc4c[nH]c5ccccc45)NC(=O)[C@H](CO)NC(=O)[C@@H]4CSSC[C@H](NC(=O)[C@H]([C@@H](C)O)NC(=O)[C@H](CCC(=O)O)NC(=O)CNC(=O)[C@H](CSSC[C@H](NC(=O)[C@H](CC(N)=O)NC(=O)[C@H]([C@@H](C)O)NC1=O)C(=O)N[C@@H]([C@@H](C)O)C(=O)N4)NC(=O)[C@H](C(C)C)NC(=O)[C@@H]1CCCN1C(=O)[C@H](CC(C)C)NC(=O)CNC(=O)[C@H](CC(N)=O)NC(=O)[C@H](CCCNC(=N)N)NC(=O)[C@H](CCCCN)NC3=O)C(=O)N[C@@H]([C@@H](C)O)C(=O)N[C@@H](CC(C)C)C(=O)NCC(=O)N[C@@H]([C@@H](C)O)C(=O)N2`, for which the half-life in series [2] is > 24 h. For `CC[C@H](C)[C@@H]1NC(=O)[C@H](Cc2ccc(O)cc2)NC(=O)[C@@H](N)CSSC[C@@H](C(=O)N2CCC[C@H]2C(=O)N[C@@](C)(CC(C)C)C(=O)NCC(N)=O)NC(=O)[C@H](CC(N)=O)NC(=O)[C@H](CCC(N)=O)NC1=O`, the half-life in series [2] was 4.4 h. On to `[H][C@@]12CCCN1C(=O)[C@@H]1CSSC[C@H](NC(=O)CNC(=O)[C@H](C)NC(=O)CNC(=O)[C@H](C)NC(=O)CNC(=O)[C@H](C)NC(=O)CNC(=O)[C@H](CC(C)C)NC2=O)C(=O)N[C@@H](Cc2ccc(O)cc2)C(=O)N[C@@H]([C@@H](C)CC)C(=O)N[C@@H](CCC(N)=O)C(=O)N[C@@H](CC(N)=O)C(=O)N1` (HELM PEPTIDE1{A.G.A.G.A.G.C.Y.I.Q.N.C.P.L.G}$PEPTIDE1,PEPTIDE1,7:R3-12:R3|PEPTIDE1,PEPTIDE1,1:R1-15:R2$$$V2.0), for which the half-life in series [2] is < 0.05 h. Consider `CC[C@H](C)[C@@H]1NC(=O)[C@@H]2CCCN2C(=O)[C@@H]2CCCN2C(=O)[C@H]([C@@H](C)CC)NC(=O)[C@H](CO)NC(=O)[C@H](CCCCN)NC(=O)[C@H]([C@@H](C)O)NC(=O)[C@@H]2CSSC[C@H](NC1=O)C(=O)N[C@@H](Cc1ccc(OC)cc1)C(=O)N[C@@H](Cc1ccccc1)C(=O)N[C@@H](CCC(N)=O)C(=O)N[C@@H](CC(N)=O)C(=O)N[C@@H](CCCNC(=N)N)C(=O)N1CCC[C@H]1C(=O)N[C@@H](CCCNC(=N)N)C(=O)N2` (cyclo(CTKSIPPICY(Me)FQNRPR); disulfide 1-9), for which the half-life in series [2] is 0.05 h.
